Consider ten compounds from patent publication US10653717B2, “Antibiotic compositions” (priority 2016, dated 2020).

Assay in all cases: Drug sensitivity of clinical isolated strain
The subject of experiment [1] is ECO-1: Escherichia coli 1139#. It is filed as cell-based.
The test system of experiment [2] is ECO-3: E. coli ZY-1. Type of experiment: cell-based, Escherichia coli.
Experiment [3] concerns ECL-1: Enterobacter cloacae 0431#. It is filed as cell-based. The following applies: ECL-1 (Table 3).
For experiment [4], the system named is KP-1: Klebsiella pneumonia subsp. pneumonia 13#. It is filed as cell-based. Conditions: KP-1 (Table 3).
Experiment [5] relates to ECL-2: E. cloacae 2301#. It is filed as cell-based, Enterobacter cloacae.
In experiment [6] the test system is AB-1: Acinetobacter baumannii H#. Type of experiment: cell-based.
The subject of experiment [7] is AB-2: A. baumannii 0361#. It is filed as cell-based, Acinetobacter baumannii. The following applies: AB-2 (Table 3).
The subject of experiment [8] is ECO-2: E. coli 2219#. Type of experiment: cell-based, Escherichia coli. Conditions: ECO-2 (Table 3).
In experiment [9] the test system is KP-2: K. pneumonia subsp. pneumonia 0322#. Type of experiment: cell-based, Klebsiella pneumonia.
The subject of experiment [10] is PA-1: Pseudomonas aeruginose 1298#. It is filed as cell-based, Pseudomonas aeruginosa.
The test system of experiment [11] is PA-2: P. aeruginose 0009#. Type of experiment: cell-based, Pseudomonas aeruginosa. Conditions: PA-2 (Table 3).
Further: key: R: resistant; S: sensitive.

In the case of `NCC[C@H](O)C(=O)N[C@@H]1C[C@H](N)[C@@H](O[C@H]2O[C@H](CN)[C@@H](O)[C@H](O)[C@H]2O)[C@H](O)[C@H]1O[C@H]1O[C@H](CO)[C@@H](O)[C@H](N)[C@H]1O` [Amikacin], the Drug sensitivity entry in [1] (ECO-1 (Table 3)) is listed as “S”; in experiment [1] (ECO-1 (table of Example 3)), “S”; in experiment [2] (E. coli ZY-1 (Table 7)), “S”; in experiment [2] (ECO-3 (Table 3)) it was “S”; in experiment [3] it was “S”; in experiment [4] it was “R”. Besides, the Drug sensitivity result is listed as “S” in [5] (ECL-2 (Table 3)); “S” in experiment [5] (ECL-2 (table of Example 3)); “R” in experiment [6] (AB-1 (Table 3)); “R” in [6] (AB-1 (table of Example 3)); “R” in experiment [7]; “S” in experiment [8]. Also, the Drug sensitivity result in experiment [9] (KP-2 (Table 3)) is “S”; in experiment [9] (KP-2 (table of Example 3)), “S”; in [10] (PA-1 (Table 3)), “S”; in experiment [10] (PA-1 (table of Example 3)), “S”; in [11], “R”.
With `CO/N=C(\C(=O)N[C@@H]1C(=O)N2C(C(=O)O)=C(COC(C)=O)CS[C@H]12)c1csc(N)n1` [Cefotaxime], the Drug sensitivity result in [1] (ECO-1 (Table 3)) was “R”; in experiment [1] (ECO-1 (table of Example 3)) it was “R”; in experiment [2] (E. coli ZY-1 (Table 7)), “S”; in experiment [2] (ECO-3 (Table 3)), “S”; in experiment [3] it was “R”; in experiment [4], “R”. In addition, the Drug sensitivity result in [5] (ECL-2 (Table 3)), in [5] (ECL-2 (table of Example 3)), in [6] (AB-1 (Table 3)), in experiment [6] (AB-1 (table of Example 3)), in experiment [7] and in experiment [8] was “R” in each case. In addition, the Drug sensitivity result in [9] (KP-2 (Table 3)), in experiment [9] (KP-2 (table of Example 3)), in [10] (PA-1 (Table 3)), in experiment [10] (PA-1 (table of Example 3)) and in experiment [11] was “R” each time.
Consider `CC1(C)S[C@@H]2[C@H](NC(=O)[C@H](N)c3ccccc3)C(=O)N2[C@H]1C(=O)O` [Ampicillin], for which the Drug sensitivity entry in experiment [1] (ECO-1 (Table 3)) is given as “S”; in [1] (ECO-1 (table of Example 3)) it was “S”; in experiment [2] (E. coli ZY-1 (Table 7)) it was “S”; in [2] (ECO-3 (Table 3)), “S”; in experiment [4] it was “R”; in experiment [6] (AB-1 (Table 3)), “R”. Besides, the Drug sensitivity entry in experiment [6] (AB-1 (table of Example 3)) is on record as “R”; in experiment [7] it was “R”; in [8], “R”; in experiment [9] (KP-2 (Table 3)) it was “R”; in [9] (KP-2 (table of Example 3)) it was “R”; in experiment [10] (PA-1 (Table 3)) it was “R/S”. Besides, the figures for the Drug sensitivity result in [10] (PA-1 (table of Example 3)) and in experiment [11] were “R/S” and “R”, respectively.
Consider `CC1(C)[C@H](C(=O)O)N2C(=O)C[C@H]2S1(=O)=O` [Sulbactam], for which the Drug sensitivity entry in experiment [1] (ECO-1 (Table 3)) is listed as “R/S”; in [1] (ECO-1 (table of Example 3)), “R/S”; in experiment [2] (E. coli ZY-1 (Table 7)), “S”; in experiment [2] (ECO-3 (Table 3)) it was “S”; in [4], “R”; in experiment [6] (AB-1 (Table 3)), “R”. In addition, the Drug sensitivity result in experiment [6] (AB-1 (table of Example 3)), in [8], in [9] (KP-2 (Table 3)) and in [9] (KP-2 (table of Example 3)) was “R” each time.
For the compound `Cc1nnc(SCC2=C(C(=O)O)N3C(=O)[C@@H](NC(=O)Cn4cnnn4)[C@H]3SC2)s1` [Cefazolin], the Drug sensitivity result in experiment [1] (ECO-1 (Table 3)) was “R”; in [1] (ECO-1 (table of Example 3)), “R”; in [2] (E. coli ZY-1 (Table 7)), “S”; in experiment [2] (ECO-3 (Table 3)), “S”; in [4], “R”; in experiment [6] (AB-1 (Table 3)), “R”. For the same compound, the Drug sensitivity entry in experiment [6] (AB-1 (table of Example 3)), in [7], in [8], in [9] (KP-2 (Table 3)), in experiment [9] (KP-2 (table of Example 3)) and in experiment [10] (PA-1 (Table 3)) was “R” each time. The Drug sensitivity entry in experiment [10] (PA-1 (table of Example 3)) and in experiment [11] was “R” each time.
Take `C[C@H]1[C@H](NC(=O)/C(=N\OC(C)(C)C(=O)O)c2csc(N)n2)C(=O)N1S(=O)(=O)O` [Aztreonam]: the Drug sensitivity result in experiment [1] (ECO-1 (Table 3)) is “R”; in experiment [1] (ECO-1 (table of Example 3)), “R”; in experiment [2] (E. coli ZY-1 (Table 7)) it was “S”; in experiment [2] (ECO-3 (Table 3)) it was “S”; in experiment [3] it was “R”; in [5] (ECL-2 (Table 3)), “R”. For the same compound, the Drug sensitivity result in experiment [5] (ECL-2 (table of Example 3)), in experiment [6] (AB-1 (Table 3)), in experiment [6] (AB-1 (table of Example 3)), in experiment [7], in experiment [8] and in experiment [10] (PA-1 (Table 3)) was “R” each time. For the same compound, the Drug sensitivity entry in experiment [10] (PA-1 (table of Example 3)) and in [11] was “R” in each case.
For the compound Polymyxin, the Drug sensitivity result in experiment [3] was “R”; in experiment [5] (ECL-2 (Table 3)) it was “S”; in experiment [5] (ECL-2 (table of Example 3)), “S”; in experiment [6] (AB-1 (Table 3)), “S”; in experiment [6] (AB-1 (table of Example 3)) it was “S”; in experiment [7], “S”. The Drug sensitivity entry in experiment [10] (PA-1 (Table 3)), in [10] (PA-1 (table of Example 3)) and in experiment [11] was “S” in each case.
For the compound `C[C@@H](O)[C@H]1C(=O)N2C(C(=O)O)=C(SCCN=CN)C[C@H]12` [Imipenem], the Drug sensitivity entry in [1] (ECO-1 (Table 3)) was “S”; in experiment [1] (ECO-1 (table of Example 3)), “S”; in [2] (E. coli ZY-1 (Table 7)), “S”; in experiment [2] (ECO-3 (Table 3)) it was “S”; in experiment [3], “S”; in experiment [4], “R”. Further, the Drug sensitivity entry in experiment [5] (ECL-2 (Table 3)) is recorded as “R”; in experiment [5] (ECL-2 (table of Example 3)) it was “R”; in experiment [6] (AB-1 (Table 3)) it was “R”; in experiment [6] (AB-1 (table of Example 3)), “R”; in experiment [7] it was “R”; in experiment [8], “S”. Also, the Drug sensitivity result in [9] (KP-2 (Table 3)), in experiment [9] (KP-2 (table of Example 3)), in [10] (PA-1 (Table 3)) and in experiment [10] (PA-1 (table of Example 3)) was “S” in each case.
In the case of `O=C(N[C@H](CO)[C@H](O)c1ccc([N+](=O)[O-])cc1)C(Cl)Cl` [Chloramphenicol], the Drug sensitivity entry is on record as “S” in experiment [1] (ECO-1 (Table 3)); “S” in [1] (ECO-1 (table of Example 3)); “S” in experiment [2] (E. coli ZY-1 (Table 7)); “S” in experiment [2] (ECO-3 (Table 3)); “R” in experiment [3]; “R” in experiment [4]. Also, the Drug sensitivity entry was “R” in [5] (ECL-2 (Table 3)); “R” in experiment [5] (ECL-2 (table of Example 3)); “R” in experiment [6] (AB-1 (Table 3)); “R” in experiment [6] (AB-1 (table of Example 3)); “R” in experiment [7]; “S” in experiment [8]. The Drug sensitivity entry in experiment [9] (KP-2 (Table 3)), in experiment [9] (KP-2 (table of Example 3)) and in experiment [11] was “R” each time.
`Nc1ccc(S(N)(=O)=O)cc1` [Sulfanilamide]: the Drug sensitivity result in experiment [1] (ECO-1 (Table 3)), in [1] (ECO-1 (table of Example 3)), in experiment [2] (E. coli ZY-1 (Table 7)), in [2] (ECO-3 (Table 3)), in experiment [3] and in experiment [5] (ECL-2 (Table 3)) was “R” throughout. Moreover, the Drug sensitivity result in experiment [5] (ECL-2 (table of Example 3)) was “R”; in experiment [7] it was “S”; in [8], “R”; in [10] (PA-1 (Table 3)) it was “R”; in experiment [10] (PA-1 (table of Example 3)), “R”; in experiment [11], “R”.
